Like-named read-outs stand apart in the source and are kept apart here.
Key:
Ikaros = target: T1, Ikaros (Homo sapiens, UniProt Q13422); assay: Ikaros degradation in isolated human CD8+ T cells; assay type: cell-based; settings: increasing doses
T1 construct: This molecule has a DC50 for Ikaros at 10 μM and for CRBN at <1 μM; endogenous in cells; host or cells: isolated human CD8+ T cells
Method: Isolated human CD8+ T cells were treated with increasing doses of EC1-168. This molecule has a DC50 for Ikaros at 10 μM and for CRBN at <1 μM. Unique functional properties may be afforded to the CDM compounds via distinct protein recruitment.
Isolated human CD8+ T cells were treated with increasing doses of EC2-134. This molecule has a DC50 for Ikaros at 10 nM and for CRBN at 100 μM. Unique functional properties may be afforded to the CDM compounds via distinct protein recruitment.

CRBN = target: T2, CRBN (Homo sapiens, UniProt Q96SW2); assay: Western blot for expression of CRBN relative to vinculin in human T cells (CRBN degradation); assay type: cell-based
T2 construct: endogenous in cells; host or cells: primary human T cells / CD8+ T cells from peripheral blood
Text: Bortez=bortezomib; MG132=proteasome inhibitor; MLN4924=NEDD8 inhibitor.
This assay is a standard Western blot assay for expression of CRBN relative to vinculin.
[…] 0.1 percent DMSO was used as a vehicle control.

[1] = test system: CD25 (IL-2 receptor alpha); assay: Expression of activation marker CD25 on activated human T cells; assay type: cell-based; settings: 10 nM
Text: FIG. 23 is a graph showing human T cells activated with a series of immunomodulatory drugs lead to higher levels of expression of the activation marker CD25 (IL-2 receptor alpha) compared to unstimulated cells and control activated cells.

cereblon = target: T3, cereblon (Mus musculus, UniProt Q8C7D2); assay: Western blot of cereblon in splenic T cells / splenocytes of mice treated orally with a single dose; assay type: in vivo; settings: single oral dose of 75 mg/kg
T3 construct: from tissue; host or cells: spleen: purified splenic T cells and total splenocytes of treated mice
T3 sequence (Q8C7D2 1-445): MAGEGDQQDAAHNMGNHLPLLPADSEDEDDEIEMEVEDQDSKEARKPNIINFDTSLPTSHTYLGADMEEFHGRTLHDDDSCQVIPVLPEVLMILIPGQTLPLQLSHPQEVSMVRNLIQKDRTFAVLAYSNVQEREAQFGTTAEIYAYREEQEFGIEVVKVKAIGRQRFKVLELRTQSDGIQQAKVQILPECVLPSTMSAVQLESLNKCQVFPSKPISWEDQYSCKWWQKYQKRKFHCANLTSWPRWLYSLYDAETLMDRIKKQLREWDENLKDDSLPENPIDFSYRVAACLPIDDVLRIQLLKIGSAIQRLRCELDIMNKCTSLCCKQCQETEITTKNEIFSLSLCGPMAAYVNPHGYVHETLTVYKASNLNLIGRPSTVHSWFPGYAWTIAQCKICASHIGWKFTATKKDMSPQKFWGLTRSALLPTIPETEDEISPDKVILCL
Method: FIG. 24 is a graph of results from Western blots from purified splenic T cells of mice treated orally with a single dose of 75 mg/kg SM2-145. Three mice were obtained from each time point (1, 6, 12, and 24 hrs) after treatment.
FIG. 25 contains a Western blot analysis of purified T cells from mice treated orally with a single dose of 75 mg/kg EC2-035 and EC2-134.

[2] = test system: T cells expanded from patients with melanoma; assay: Cytokine assays (IL-2, IFN-γ) in T cells expanded from patients with melanoma; assay type: cell-based, human
Text: Veh=vehicle-treated cells DMSO 0.1%

cereblon (CRBN) [3] = target: T4, cereblon (CRBN) (Homo sapiens, UniProt Q96SW2); assay: Kd from ITC; assay type: binding
cereblon (CRBN) [4] = target: T5, cereblon (CRBN) (Mus musculus, UniProt Q8C7D2); assay: Western blot of cereblon (CRBN) levels in mouse CD8+ T cells; assay type: cell-based; settings: 24 hours of treatment
T5 construct: endogenous in cells; host or cells: mouse CD8+ T cells
T5 sequence (Q8C7D2 1-445): T3 sequence (Q8C7D2 1-445)

Pharmacokinetic studies = settings: in vivo
cereblon (CRBN) [5] = target: T4, cereblon (CRBN); assay: Kd and % inhibition from FI; assay type: binding

T2 sequence (Q96SW2 whole entry): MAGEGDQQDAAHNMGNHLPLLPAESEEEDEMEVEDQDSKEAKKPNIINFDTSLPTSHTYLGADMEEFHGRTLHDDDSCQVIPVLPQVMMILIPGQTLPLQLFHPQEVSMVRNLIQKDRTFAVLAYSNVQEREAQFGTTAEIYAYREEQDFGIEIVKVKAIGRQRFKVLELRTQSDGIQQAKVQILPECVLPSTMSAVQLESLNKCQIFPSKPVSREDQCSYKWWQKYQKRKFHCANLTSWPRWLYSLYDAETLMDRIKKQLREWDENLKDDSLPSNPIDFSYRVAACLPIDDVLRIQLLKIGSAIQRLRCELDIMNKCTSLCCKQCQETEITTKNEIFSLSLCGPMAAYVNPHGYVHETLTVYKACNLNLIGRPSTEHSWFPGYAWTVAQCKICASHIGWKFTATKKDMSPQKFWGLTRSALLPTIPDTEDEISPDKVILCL
T4 sequence (Q96SW2 whole entry, species assumed): as the sequence (Q96SW2 whole entry) above
T1 sequence (Q13422 whole entry): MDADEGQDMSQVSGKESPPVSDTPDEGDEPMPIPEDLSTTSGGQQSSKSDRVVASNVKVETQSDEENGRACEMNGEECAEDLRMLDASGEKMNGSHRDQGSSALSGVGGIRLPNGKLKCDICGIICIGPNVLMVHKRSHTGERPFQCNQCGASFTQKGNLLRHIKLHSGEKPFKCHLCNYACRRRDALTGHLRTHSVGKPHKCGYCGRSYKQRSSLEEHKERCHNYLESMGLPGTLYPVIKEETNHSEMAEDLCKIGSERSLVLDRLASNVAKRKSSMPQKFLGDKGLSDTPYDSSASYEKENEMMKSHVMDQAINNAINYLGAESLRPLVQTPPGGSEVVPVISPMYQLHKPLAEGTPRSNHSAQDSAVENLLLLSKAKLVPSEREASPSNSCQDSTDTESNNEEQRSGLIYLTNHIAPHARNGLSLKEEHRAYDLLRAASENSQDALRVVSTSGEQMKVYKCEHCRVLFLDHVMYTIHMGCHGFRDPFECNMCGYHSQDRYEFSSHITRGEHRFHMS

Row | Compound | DC50 (Ikaros) [µM] | DC50 (CRBN; isolated human CD8+ T cells, increasing doses, read-out: DC50 for CRBN) [µM] | expression of the activation marker CD25 [1] | cereblon levels in purified splenic T cells (cereblon) | T cell function (IL-2 and IFN-γ after anti-CD3 (OKT3) activation) [2] | remaining activity at 10 µM (CRBN; 10uM, read-out: Relative Density of CRBN (% of DMSO)) [%] | remaining activity at 0.01 µM (CRBN; 24 h, 10nM, human T cells, 24 hours, read-out: Relative Density of CRBN (% of DMSO)) [%] | specificity for CRBN degradation over Ikaros (CRBN; human T cells, 24 hours) | intracellular cereblon levels (Western blot) (CRBN; human T cells, 24 hours of treatment) | DC50 (CRBN; human T cells, 24 hours, read-out: DC50 (concentration leading to 50% degradation of cereblon)) [µM] | Kd (cereblon (CRBN) [3]) [µM] | cereblon (CRBN) levels (Western blot) (cereblon (CRBN) [4]) | stability in pharmacokinetic studies (Pharmacokinetic studies) | Kd (cereblon (CRBN) [5]; FI, read-out: Kd (FI) (converted)) [µM] | inhibition at 200 µM (cereblon (CRBN) [5]; read-out: % inhibition @ 200 uM from *FI) [%]
1 | CS(=O)(=O)O.O=C1CC[C@H](N2Cc3c(OCc4ccc(CN5CCN(Cc6ccc(COc7cccc8c7CN([C@H]7CCC(=O)NC7=O)C8=O)cc6)CC5)cc4)cccc3C2=O)C(=O)N1 [EC1-168, (4-(4-(((2-((S)-2,6-dioxopiperidin-3-yl)-1-oxoisoindolin-4-yl)oxy)methyl)benzyl)-114-piperazin-1-yl)(4-(((2-((S)-2,6-dioxopiperidin-3-yl)-1-oxoisoindolin-4-yl)oxy)methyl)phenyl)methylium methyl sulfonate] | 10 | < 1 | induces more immune potentiation | – | – | – | – | – | – | – | – | – | – | – | –
2 | O=C1CCC(N2Cc3c(CCCOCCOCCCc4cccc5c4CN(C4CCC(=O)NC4=O)C5=O)cccc3C2=O)C(=O)N1 (stereo not drawn) [SM2-145, 3,3′-(((Ethane-1,2-diylbis(oxy))bis(propane-3,1-diyl))bis(1-oxoisoindoline-4,2-diyl))bis(piperidine-2,6-dione)] | – | – | – | partial reduction in cereblon levels at 6 hours | actively increasing T cell function | 7.21 | 21 | Specificity is shown for CRBN degradation over Ikaros | reduced intracellular cereblon levels | 0.00288 | 6.6 ± 0.8 | reduced cereblon (CRBN) levels | Poor stability | 6.59 ± 1.57 | 70.19 ± 0.28

Reference: patent publication US20250288573A1 (H. LEE MOFFITT CANCER CENTER AND RESEARCH INSTITUTE, INC., priority 2018, published 2025)
